Legend:
[1] = biological target: WT Shaker K channel (Drosophila melanogaster, UniProt P08510, DEL6-46); experiment: physchem; type: cell-based; conditions: for pKa: Drosophila melanogaster, from pH dependence of G(V) shift
Source text: A Shaker K channel is a Kv channel from the fruit fly Drosophila melanogaster. It is homologous to the human Kv1-type ion channels.
All animal experiments were approved by the local Animal Care and Use Committee and followed international guidelines. A modified Shaker H4 channel^30, with removed N-type inactivation (ShH4IR)^31, here called the wild type (WT) channel, was expressed in oocytes. In addition, a modified 3R Shaker K channel where two introduced positive charged arginines (M356R and A359R) in addition to one native arginine (R362) makes the channel more sensitive to DHA^16, was expressed in oocytes and in a CHO—K1 stable cell line.
African clawed frogs (Xenopus laevis) were anesthetized with 1.4 g/L ethyl 3-aminobenzoate methanesulfonate salt (tricaine). After an incision through the abdomen a batch of oocytes were removed. Clusters of oocytes were separated by incubation for ˜1 h in a Ca-free O—R2 solution (in mM: 82.5 NaCl, 2 KCl, 5 HEPES, and 1 MgCl2; pH adjusted to 7.4 by NaOH) containing Liberase Blendzyme. The oocytes were then incubated at 8° C. in a modified Barth's solution (MBS; in mM: 88 NaCl, 1 KCl, 2.4 NaHCO3, 15 HEPES, 0.33 Ca(NO3)2, 0.41 CaCl2, and 0.82 MgSO4; pH adjusted to 7.6 by NaOH) supplemented with penicillin (25 U/ml), streptomycin (25 μg/ml), and sodium pyruvate (2.5 mM) 2-24 hours before injection. Fifty nl of cRNA (50 pg) were injected into each oocyte using a Nanoject injector (Drummond Scientific, Broomall, Pa.). Injected oocytes were kept at 8° C. in MBS until one day before electrophysiological recordings, when they were incubated at 16° C. All chemicals were supplied from Sigma-Aldrich (Stockholm, Sweden) if not stated otherwise.
(§1) All manual electrophysiological recordings were performed at room temperature (20-23° C.), using a GeneClamp 500B amplifier (for oocytes) or a Axopatch 200B amplifier (for manual patch clamp of CHO—K1 cells and DRG neurons) and a Digidata 1440A digitizer and pClamp 10 software (all from Molecular Devices, Inc., Sunnyvale, Calif., USA). Compounds were dissolved to 100 mM in 99.5% EtOH and stored at −20° C. Compounds were diluted in extracellular solution to the desired test concentration.
The oocyte was placed in a bath surrounded by 1K extracellular solution that contained (in mM): 88 NaCl, 1 KCl, 15 HEPES, 0.4 CaCl2, and 0.8 MgCl2, pH adjusted to 7.4 by NaOH (reaching a sodium concentration of ˜100 mM). Control solution was added to the bath with a gravity driven perfusion system. Compound solution was added to the bath manually with a syringe. Two glass microelectrodes were inserted into the oocyte using micromanipulators. […] All channels were closed when the potential was clamped to −80 mV and this voltage was set as the holding potential. Currents were evoked from the holding potential of −80 mV by 100-ms long, 5-mV steps ranging from −80 up to +50 mV (WT) and +70 mV (3R).
Conductance GK(V) was calculated as GK(V)=[…], (Eq. 1) where IK is the average current from the steady-state phase at the end of each 100-ms pulse, V is the membrane voltage, and Vrev is the reversal potential for K^+, (set to −80 mV for the oocytes, and calculated to be −89 mV for the CHO—K1 cells).
G(V)=A/(1+exp((V1/2−V)/s))^n (Eq. 2) where A is amplitude of the curve, V is the absolute membrane voltage, V1/2 is the midpoint, s is the slope and n is an exponent set to 4^17. The compound-induced G(V) shift was determined at the 10% level of the maximum conductance in control solution^17. The compound-induced G(V) shift in CHO—K1 was quantified by subtracting the control V1/2 from the compound V1/2 when n was set to 1.
Data for concentration and pH dependent G(V) shifts (ΔV) in oocytes were fit with a dose-response equation ΔV=ΔVmax/(1+c1/2/c), (Eq. 3) where Δvmax is the maximal shift, c1/2 is half maximal effective concentration/pKa value and c is the concentration.

[2] = system: dorsal root ganglion (DRG) neurons; experiment: Resting membrane potential of DRG neurons, whole-cell current clamp; type: cell-based, mice; conditions: 10 μM, pH 7.4, 120 s application
Protocol: (§2) All animal experiments were approved by the local Animal Care and Use Committee and followed international guidelines. Five female 7-12 week-old C57BL/6 mice (Scanbur) were used for this study. The mice were anaesthetized with isoflurane and decapitated. Dorsal root ganglia (DRG) were dissected from all spinal levels and enzymatically digested with collagenase (250 CDU/ml) for 15 min, and then trypsin (1 mg/ml) was added for another 30 min. The ganglia were centrifuged and resuspended in Leibovitz L-15 media with glutamine, supplemented with 10% fetal calf serum, 38 mM glucose, 24 mM NaHCO3 and penicillin/streptomycin. The ganglia were triturated and the DRG neurons plated on poly-D-lysine coated plastic coverslips. The neurons were cultured at 37° C. with 5% CO2 for 2-3 days before the electrophysiological recordings.
as §1
(§3) CHO—K1 Cells were plated on coverslips 2 h before the manual electrophysiological recordings. Coverslips with CHO—K1 cells or DRG neurons were placed in a recording chamber and perfused with extracellular solution by a gravity-fed perfusion system. Substances were applied by a pressurized, automated OctaFlow perfusion system (ALA Scientific Instruments). The signals were sampled at 5-20 kHz after low-pass filtering at 2-5 kHz. For CHO—K1 cells the intracellular solution contained (in mM): 120 K-gluconate, 10 KCl, 5 EGTA, 10 HEPES, 4 Mg-ATP, 0.3 Na-GTP, pH 7.3; the extracellular solution contained (in mM): 135 NaCl, 4 KCl, 10 HEPES, 1 MgCl2, 1.8 CaCl2, 10 glucose, pH 7.4. Currents were evoked in CHO—K1 cells in whole-cell voltage-clamp mode from a holding potential of −80 mV by 100-ms long, 10-mV steps ranging from −80 to +80 mV.
(§4) For DRG neurons the intracellular solution contained (in mM): 120 K-gluconate, 10 KCl, 1 EGTA, 10 HEPES, 4 Mg-ATP, 0.3 Na-GTP, pH 7.3; the extracellular solution contained (in mM): 144 NaCl, 2.5 KCl, 10 HEPES, 0.5 MgCl2, 2 CaCl2, 10 glucose, pH 7.4. A liquid-junction potential of approximately −14 mV was corrected for. […] Small and medium sized DRG neurons were selected for whole-cell current-clamp recording. 10 μM of the compounds were applied for 120 s to study the effect on the resting membrane potential, and for 45-120 s to study the effects on evoked action potentials. To evoke action potentials 800-ms depolarizing pulses
The compound effect on the resting membrane potential Vm was determined by subtracting the control pre-compound Vm from the Vm at the end of the 120 s application of test compound.

[3] = system: dorsal root ganglion (DRG) neurons; experiment: Evoked action potentials (excitability) of DRG neurons, current clamp; type: cell-based, mice; conditions: 10 μM; for effect on the after hyperpolarization: cell with single action potential; for effect on resting potential, cell with single action potential: constant current pulse; for effect on train of action potentials: continuous pulse
Protocol: as §2, §1, §3, §4

WT Shaker K channel, sequence (P08510 other isoform, or with tags, fused parts or gaps DEL6-46): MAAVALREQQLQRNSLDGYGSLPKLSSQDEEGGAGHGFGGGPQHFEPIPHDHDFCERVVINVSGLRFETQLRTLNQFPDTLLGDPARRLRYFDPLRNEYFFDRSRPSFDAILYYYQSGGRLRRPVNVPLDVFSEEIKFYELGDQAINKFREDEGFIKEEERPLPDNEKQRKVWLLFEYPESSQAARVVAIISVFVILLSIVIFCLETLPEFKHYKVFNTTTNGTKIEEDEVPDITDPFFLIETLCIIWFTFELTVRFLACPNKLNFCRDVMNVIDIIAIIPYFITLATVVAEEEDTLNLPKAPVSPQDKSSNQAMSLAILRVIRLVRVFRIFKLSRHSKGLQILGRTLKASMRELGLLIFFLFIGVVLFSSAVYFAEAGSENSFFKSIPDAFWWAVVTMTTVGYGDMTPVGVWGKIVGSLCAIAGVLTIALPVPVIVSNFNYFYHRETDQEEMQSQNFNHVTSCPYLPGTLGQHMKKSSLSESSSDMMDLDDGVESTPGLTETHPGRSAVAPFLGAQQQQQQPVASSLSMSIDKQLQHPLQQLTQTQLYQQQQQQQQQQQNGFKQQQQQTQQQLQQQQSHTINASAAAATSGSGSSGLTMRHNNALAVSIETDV

| Compound | pKa ([1]; 100 μM) | shift of the resting membrane potential (ΔVm) [2] | effect on the after hyperpolarization [3] | effect on resting potential, cell with single action potential [3] | effect on train of action potentials [3] | G(V) shift for WT relative to 100 μM DHAA ([1]; 100 μM, pH 7.4) | G(V) shift for WT ([1]; 100 μM, pH 7.4, Xenopus oocytes) | current amplitude increase compared to DHAA ([1]; WT channel at pH 7.4) | current amplitude increase compared to DHA (A=exp(−ΔV/4.7)) ([1]; WT, 100 μM, pH 7.4) |
| --- | --- | --- | --- | --- | --- | --- | --- | --- | --- |
| CO/N=C1\CC2[C@](C)(C(=O)O)CCC[C@]2(C)c2cc(Br)c(C(C)C)cc21 (stereo partly drawn) [Wu32, (1R,4aS,E)-6-bromo-7-isopropyl-9-(methoxyimino)-1,4a-dimethyl-1,2,3,4,4a,9,10,10a-octahydrophenanthrene-1-carboxylic acid] | 6.1 | intermediately potent hyperpolarizers | – | – | – | – | – | – | – |
| CC(C)c1ccc2c(c1)C(C(=O)O)CC1[C@](C)(C(=O)O)CCC[C@]21C (some centres unmarked) [Wu35] | – | −1.1±0.4 | only a very small effect | almost no effect | almost no effect on the same cell | – | – | – | – |
| C[C@@]1(C(=O)O)CCC[C@]2(C)c3cc(Cl)c(Cl)c(Cl)c3CCC12 (stereo partly drawn) [Wu50, (1R,4aS)-6,7,8-trichloro-1,4a-dimethyl-1,2,3,4,4a,9,10,10a-octahydrophenanthrene-1-carboxylic acid] | 6.8 | – | pronounced effect | made the resting potential more negative | completely abolished all action potentials | ~10 times | −21.2 mV | 56 times | 25 times |

Reference: patent publication US20180193294A1, “Dehydroabietic acid (DHAA) derivatives for use as ion channel openers” (priority 2015, published 2018)
